“And” between values parts separate entries of the source, which are not always exact repeats. Equal entries are not always repeated. HELM strings list units from the 5' end as sugar, base in round brackets, then linkage (d deoxyribose, r ribose, m 2'-O-methyl, p phosphodiester). Strings are as the collection lists them, not checked against the first reports. ss, as = sense and antisense strand; [fl2r] = 2'-fluoro
Conditions: siRNA
Note: test system not given here.

Substance: RNA1{r(A)p.r(G)p.r(G)p.r(A)p.r(C)p.r(G)p.r(G)p.m(U)p.r(A)p.r(C)p.r(U)p.r(U)p.m(U)p.r(C)p.r(G)p.m(A)p.r(A)p.r(A)p.r(G)p.r(T)p.r(T)}|RNA2{r(C)p.r(U)p.r(U)p.r(U)p.r(C)p.r(G)p.r(A)p.r(A)p.r(A)p.r(G)p.m(U)p.r(A)p.r(C)p.r(C)p.r(G)p.r(U)p.r(C)p.r(C)p.r(U)p.r(T)p.r(T)}$$$RNA1{StrandType:ss}|RNA2{StrandType:as}$
- target mRNA knockdown: 44%

Substance: RNA1{r(A)p.r(G)p.r(G)p.r(A)p.r(C)p.r(G)p.r(G)p.r(U)p.r(A)p.r(C)p.r(U)p.r(U)p.r(U)p.r(C)p.r(G)p.r(A)p.r(A)p.r(A)p.r(G)p.r(T)p.r(T)}|RNA2{r(C)p.r(U)p.r(U)p.r(U)p.r(C)p.r(G)p.r(A)p.r(A)p.r(A)p.r(G)p.r(U)p.m(A)p.r(C)p.r(C)p.r(G)p.r(U)p.r(C)p.r(C)p.r(U)p.r(T)p.r(T)}$$$RNA1{StrandType:ss}|RNA2{StrandType:as}$
- target mRNA knockdown: 46%

Substance: RNA1{r(A)p.r(G)p.r(G)p.r(A)p.r(G)p.r(A)p.r(C)p.r(C)p.r(G)p.[fl2r](U)p.r(G)p.r(A)p.[fl2r](C)p.r(A)p.r(U)p.r(U)p.r(U)p.r(C)p.r(G)p.r(T)p.r(T)}|RNA2{r(C)p.r(G)p.r(A)p.r(A)p.r(A)p.[fl2r](U)p.r(G)p.r(U)p.r(C)p.[fl2r](A)p.r(C)p.r(G)p.r(G)p.r(U)p.r(C)p.r(U)p.r(C)p.r(C)p.r(U)p.r(T)p.r(T)}$$$RNA1{StrandType:ss}|RNA2{StrandType:as}$
- target mRNA knockdown: 69%

Substance: RNA1{r(A)p.r(G)p.r(G)p.r(A)p.r(G)p.r(A)p.r(C)p.r(C)p.r(G)p.[fl2r](U)p.r(G)p.r(A)p.[fl2r](C)p.r(A)p.r(U)p.r(U)p.r(U)p.r(C)p.r(G)p.r(T)p.r(T)}|RNA2{r(C)p.r(G)p.r(A)p.r(A)p.r(A)p.[fl2r](U)p.r(G)p.r(U)p.r(C)p.r(A)p.r(C)p.r(G)p.r(G)p.r(U)p.r(C)p.r(U)p.r(C)p.r(C)p.r(U)p.r(T)p.r(T)}$$$RNA1{StrandType:ss}|RNA2{StrandType:as}$
- target mRNA knockdown: 72%

Substance: RNA1{r(A)p.r(G)p.r(U)p.[fl2r](U)p.r(A)p.r(A)p.r(C)p.r(C)p.r(C)p.r(G)p.r(G)p.r(G)p.r(A)p.r(C)p.r(U)p.[fl2r](U)p.r(G)p.r(G)p.r(A)p.r(T)p.r(T)}|RNA2{r(U)p.r(C)p.[fl2r](C)p.r(A)p.r(A)p.r(G)p.r(U)p.r(C)p.r(C)p.r(C)p.r(G)p.r(G)p.r(G)p.r(U)p.[fl2r](U)p.r(A)p.r(A)p.r(C)p.r(U)p.r(T)p.r(T)}$$$RNA1{StrandType:ss}|RNA2{StrandType:as}$
- target mRNA knockdown: 85% and 86%

Substance: RNA1{r(A)p.r(G)p.r(U)p.m(U)p.r(A)p.r(A)p.r(C)p.r(C)p.r(C)p.r(G)p.r(G)p.r(G)p.r(A)p.r(C)p.r(U)p.m(U)p.r(G)p.r(G)p.r(A)p.r(T)p.r(T)}|RNA2{r(U)p.r(C)p.m(C)p.r(A)p.r(A)p.r(G)p.r(U)p.r(C)p.r(C)p.r(C)p.r(G)p.r(G)p.r(G)p.r(U)p.m(U)p.r(A)p.r(A)p.r(C)p.r(U)p.r(T)p.r(T)}$$$RNA1{StrandType:ss}|RNA2{StrandType:as}$
- target mRNA knockdown: 90%

Substance: RNA1{r(A)p.r(G)p.r(U)p.m(U)p.r(A)p.r(A)p.r(C)p.r(C)p.r(C)p.r(G)p.r(G)p.r(G)p.r(A)p.r(C)p.r(U)p.r(U)p.r(G)p.r(G)p.r(A)p.r(T)p.r(T)}|RNA2{r(U)p.r(C)p.m(C)p.r(A)p.r(A)p.r(G)p.r(U)p.r(C)p.r(C)p.r(C)p.r(G)p.r(G)p.r(G)p.r(U)p.r(U)p.r(A)p.r(A)p.r(C)p.r(U)p.r(T)p.r(T)}$$$RNA1{StrandType:ss}|RNA2{StrandType:as}$
- target mRNA knockdown: 91%

Substance: RNA1{r(A)p.r(G)p.r(U)p.r(C)p.r(C)p.r(C)p.m(U)p.r(G)p.r(G)p.r(A)p.r(G)p.r(C)p.r(C)p.r(U)p.m(U)p.r(A)p.r(A)p.r(A)p.r(C)p.r(T)p.r(T)}|RNA2{r(G)p.r(U)p.r(U)p.m(U)p.r(A)p.r(A)p.r(G)p.r(G)p.r(C)p.r(U)p.r(C)p.m(C)p.r(A)p.r(G)p.r(G)p.r(G)p.r(A)p.r(C)p.r(U)p.r(T)p.r(T)}$$$RNA1{StrandType:ss}|RNA2{StrandType:as}$
- target mRNA knockdown: 65%

Reference: the OligoGym collection
